Like-named read-outs stand apart in the source and are kept apart here.
Assays:
LaINDY [1] = target: T1, LaINDY (Lactobacillus acidophilus, UniProt Q5FKK5); experiment: thermostability, SEC peak height after […] h at […] °C; assay type: binding
T1 construct: gene LBA0912

[2] = target: LaINDY, succinate/dicarboxylate transporter from Lactobacillus acidophilus (Lactobacillus acidophilus); experiment: SEC-MALS; Shodex KW803 column, buffer with 0.05% DDM, three angle static light scattering, refractive index and UV detectors; detergent-purified LaINDY
[3] = target: LaINDY, succinate/dicarboxylate transporter from Lactobacillus acidophilus (Lactobacillus acidophilus); experiment: crystal structure
[4] = target: LaINDY, succinate/dicarboxylate transporter from Lactobacillus acidophilus (Lactobacillus acidophilus); experiment: cryo-EM structure
LaINDY [5] = target: T1, LaINDY; experiment: whole-cell radiolabelled uptake and exchange in E. coli BL21(DE3); assay type: cell-based; conditions: 1 μM 3H-succinate, labelled compound, pH 7.5, 30 °C, 10 mM NaCl

T1 sequence (Q5FKK5 1-488 limits assumed): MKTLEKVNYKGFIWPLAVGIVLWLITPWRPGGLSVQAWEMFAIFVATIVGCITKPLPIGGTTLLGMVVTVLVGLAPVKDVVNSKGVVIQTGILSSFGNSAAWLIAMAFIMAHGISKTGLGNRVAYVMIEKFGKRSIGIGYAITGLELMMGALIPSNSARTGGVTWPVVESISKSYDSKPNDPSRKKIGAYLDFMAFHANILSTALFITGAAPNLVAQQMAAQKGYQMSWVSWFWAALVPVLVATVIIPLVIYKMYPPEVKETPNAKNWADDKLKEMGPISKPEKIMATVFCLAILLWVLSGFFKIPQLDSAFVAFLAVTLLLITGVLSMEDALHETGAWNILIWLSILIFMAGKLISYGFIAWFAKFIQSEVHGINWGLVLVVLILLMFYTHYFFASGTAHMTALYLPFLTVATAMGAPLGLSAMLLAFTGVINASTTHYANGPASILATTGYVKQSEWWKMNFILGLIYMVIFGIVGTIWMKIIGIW

O=C(O)CCC(=O)C(=O)O [αKG]
thermostability, SEC peak height after 2 h at 42 °C (LaINDY [1]; pH 8.0, 150 mM NaCl, 0.15% DM, 100 mM compound as printed): Following identification of malate and αKG as stabilizers

O=C(O)CC(O)C(=O)O (racemic) [malate]
thermostability, SEC peak height after 2 h at 42 °C (LaINDY [1]): Following identification of malate and αKG as stabilizers

LaINDY, succinate/dicarboxylate transporter from Lactobacillus acidophilus (natural protein)
stoichiometry N [2]: 2 | stoichiometry N [3]: 2 | stoichiometry N [4]: 2

O=C(O)CCC(=O)O [succinate]
whole-cell radiolabelled uptake and exchange in E. coli BL21(DE3) (LaINDY [5]): E. coli transformed with LaINDY accumulated radioactive succinate from an external solution

Reference: paper PMC7553777, “Structural basis for the reaction cycle of DASS dicarboxylate transporters” (eLife, 2020)
